{
  "source": "the supplement of paper PMC11208160",
  "data": [
    {"experiment": "recombinant UMI read abundance after kanamycin selection (control-corrected) (log10(CPM+1)); higher = more efficient recombination; extreme values may be limits of the assay; sequences stand for … in AGTGCAGAGAAAATCGGCCAGTTTTCTCTGCCTGCAGTCCGCATGCCGTGGGACCCCTTGGGTTCTAACCTGTTGCCTAGATTTATGCAGCGGACTGCCTTTCTCCCAAAGTGATAAACCGG…AGGTTGGTTTCACT; site = the 11-nt donor", "method_in_brief": "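Reported values are log10(CPM+1) from a pooled Escherichia coli screen of donor and donor-binding-loop pairs for the IS621 bridge recombinase. Selection used IPTG (0.07 mM) plus kanamycin, against unselected plating, each in two replicates. Recombinant UMIs were amplified across the donor–target junction, sequenced, converted to CPM, averaged over replicates and scaled by control-derived factors.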", "values": [
      {"sequence": "TTACCATCATGGACCGGTTTTCCCGGTAATCCGTATTTGAC (site TTACCATCTGT)", "recombinant UMI read abundance (log10)": 2.16},
      {"sequence": "CCGCTACCATGGACCGGTTTTCCCGGTAATCCGTATTTGCT (site CTGCTACCTAG)", "recombinant UMI read abundance (log10)": 0.00224},
      {"sequence": "GGCGCAGCATGGACCGGTTTTCCCGGTAATCCGTATTTGGT (site GGCGCAGCTAC)", "recombinant UMI read abundance (log10)": 0.482},
      {"sequence": "TCAGTGCCATGGACCGGTTTTCCCGGTAATCCGTATTTGCG (site TCAGTGCCTCG)", "recombinant UMI read abundance (log10)": 0.0165},
      {"sequence": "CCAAATCCATGGACCGGTTTTCCCGGTAATCCGTATTTGTT (site CCAAATCCTAA)", "recombinant UMI read abundance (log10)": 0},
      {"sequence": "TGGAATGCATGGACCGGTTTTCCCGGTAATCCGTATTTGTT (site TGGAATGCTAA)", "recombinant UMI read abundance (log10)": 1.71},
      {"sequence": "CTTGGAACATGGACCGGTTTTCCCGGTAATCCGTATTTGTT (site CCTGGAACTAA)", "recombinant UMI read abundance (log10)": 0.00748},
      {"sequence": "TCACAGACATGGACCGGTTTTCCCGGTAATCCGTATTTGCG (site TCAGAGACTCG)", "recombinant UMI read abundance (log10)": 0.267},
      {"sequence": "TAGCTAGCATGGACCGGTTTTCCCGGTAATCCGTATTTGTA (site TAGCTAGCTTG)", "recombinant UMI read abundance (log10)": 0.789},
      {"sequence": "ACAGTATCATGGACCGGTTTTCCCGGTAATCCGTATTTGCC (site ACAGTATCTAG)", "recombinant UMI read abundance (log10)": 1.42},
      {"sequence": "CGCACATCATGGACCGGTTTTCCCGGTAATCCGTATTTGCT (site CGGACATCTAG)", "recombinant UMI read abundance (log10)": 0},
      {"sequence": "GGAAATCCATGGACCGGTTTTCCCGGTAATCCGTATTTGAA (site GGTAATCCTTT)", "recombinant UMI read abundance (log10)": 0},
      {"sequence": "AGGACAACATGGACCGGTTTTCCCGGTAATCCGTATTTGAC (site AGGACCACTGT)", "recombinant UMI read abundance (log10)": 0},
      {"sequence": "TCCGCCGCATGGACCGGTTTTCCCGGTAATCCGTATTTGCG (site TCCCCCGCTCG)", "recombinant UMI read abundance (log10)": 0.00514},
      {"sequence": "ACAGAATCATGGACCGGTTTTCCCGGTAATCCGTATTTGCA (site ACAGTATCTTG)", "recombinant UMI read abundance (log10)": 1.8},
      {"sequence": "AGGAGGACATGGACCGGTTTTCCCGGTAATCCGTATTTGCA (site AGGACGACTTG)", "recombinant UMI read abundance (log10)": 0.4},
      {"sequence": "AGAAAGGCATGGACCGGTTTTCCCGGTAATCCGTATTTGCT (site AGAAAGTCTAG)", "recombinant UMI read abundance (log10)": 0},
      {"sequence": "CAGACGACATGGACCGGTTTTCCCGGTAATCCGTATTTGGG (site CAGTCGACTCC)", "recombinant UMI read abundance (log10)": 0.0666},
      {"sequence": "AGGAATACATGGACCGGTTTTCCCGGTAATCCGTATTTGGA (site AGGAAGACTTG)", "recombinant UMI read abundance (log10)": 0.341},
      {"sequence": "CAAGTCACATGGACCGGTTTTCCCGGTAATCCGTATTTGAG (site CAAGTCACTCT)", "recombinant UMI read abundance (log10)": 1.82},
      {"sequence": "CAAATATCATGGACCGGTTTTCCCGGTAATCCGTATTTGAC (site CTAGTATCTGT)", "recombinant UMI read abundance (log10)": 0.632},
      {"sequence": "CCAGGAGCATGGACCGGTTTTCCCGGTAATCCGTATTTGAT (site CCAGGCGCTAT)", "recombinant UMI read abundance (log10)": 0.854},
      {"sequence": "CGGACTACATGGACCGGTTTTCCCGGTAATCCGTATTTGAC (site TGGACTACTGT)", "recombinant UMI read abundance (log10)": 1.51},
      {"sequence": "TCCAATTCATGGACCGGTTTTCCCGGTAATCCGTATTTGCC (site TCGAATTCTGG)", "recombinant UMI read abundance (log10)": 0},
      {"sequence": "CTTCCTACATGGACCGGTTTTCCCGGTAATCCGTATTTGAG (site CTGCCTACTCT)", "recombinant UMI read abundance (log10)": 0.0339},
      {"sequence": "GAGCTCACATGGACCGGTTTTCCCGGTAATCCGTATTTGCT (site GAGCTCACTAT)", "recombinant UMI read abundance (log10)": 1.14},
      {"sequence": "TACATGTCATGGACCGGTTTTCCCGGTAATCCGTATTTGTC (site TACATGTCTGA)", "recombinant UMI read abundance (log10)": 1.56},
      {"sequence": "CCAGGTGCATGGACCGGTTTTCCCGGTAATCCGTATTTGTT (site CCAGGTGCTAT)", "recombinant UMI read abundance (log10)": 1.14},
      {"sequence": "GATTAACCATGGACCGGTTTTCCCGGTAATCCGTATTTGCT (site GATTAGCCTAG)", "recombinant UMI read abundance (log10)": 0},
      {"sequence": "TGGGAACCATGGACCGGTTTTCCCGGTAATCCGTATTTGAT (site CGGGAACCTAT)", "recombinant UMI read abundance (log10)": 0.00502},
      {"sequence": "TGATAGGCATGGACCGGTTTTCCCGGTAATCCGTATTTGGT (site TGGTAGGCTAC)", "recombinant UMI read abundance (log10)": 0.0189},
      {"sequence": "AGAGTATCATGGACCGGTTTTCCCGGTAATCCGTATTTGAA (site ACAGTATCTTG)", "recombinant UMI read abundance (log10)": 2.21}
    ]}
  ]
}
